# Laboratory results from patent publication US11970436B2, “Pharmaceutical compositions comprising monoterpenes” (NEONC Technologies, Inc., priority 2010, dated 2024).
# Columns and labels:
# K-Ras = assay: Western blot K-Ras expression; assay type: cell-based, human; settings: U251 glioma cells, 24 hours
# Method: (§1) U251 glioma cells were treated with Sigma POH or purified POH for 24 hours, then Western blot was performed.
# H-Ras [1] = assay: Western blot H-Ras expression; assay type: cell-based, human; settings: U251 glioma cells, 24 hours
# Method: as §1
# glioma cells = assay: Apoptosis / cell killing by rolipram with or without POH; assay type: cell-based
# Method: When cells were treated with rolipram alone, apoptosis occurred only after 48 hours post the addition of high concentrations of rolipram (e.g., 1 mM). Synergistic cell killing by rolipram and POH occurred within a much shorter time period, i.e., 6 hours after the addition of the drugs. Chen et al. The type IV phosphodiesterase inhibitor rolipram induces expression of the cell cycle inhibitors p21 Cip 1 and p27Kip1, resulting in growth inhibition, increased differentiation, and subsequent apoptosis of malignant A-12 glioma cells. Cancer Biology & Therapy, Vol. 1:3, 268-276, 2003.
# [2] = tested on: U251, U87, LN299 and A172 human glioma cells; assay type: cell-based
# [3] = tested on: U251 human glioma cells (temozolomide-sensitive); assay type: cell-based
# Description: (§2) U251/TR1 and U251/TR2 refer to two temozolomide-resistant U251 cell lines.
# [4] = tested on: U251 temozolomide-resistant cells (U251/TR1 and U251/TR2); assay type: cell-based, human
# Description: as §2
# [5] = tested on: U251 temozolomide-resistant cells (U251/TR1); assay: Colony formation assay on temozolomide-resistant U251; assay type: cell-based, human; settings: FIG. 3C
# B16-F1 melanoma cells = assay: Colony formation assay, POH plus radiation; assay type: cell-based; settings: FIG. 4B
# Method: (§3) Cells were treated with 325 μM or 650 μM POH prior to radiation at the doses of 2, 5 or 10 Grays (Gy). […] This was confirmed for another human glioma cell line (U251) and also for a melanoma cell line (B16-F1) (FIG. 4B).
# [6] = tested on: U251 human malignant glioma cells; assay: Colony formation assay, POH plus radiation; assay type: cell-based; settings: FIG. 4B
# Method: as §3
# human A172 glioma cells = assay: Colony formation assay, POH plus radiation; assay type: cell-based; settings: 325 μM or 650 μM POH prior to radiation at 2, 5 or 10 Gy
# Method: as §3
# [7] = tested on: glucose-regulated protein 78 (GRP78); assay: Western blot ER stress marker GRP78; assay type: cell-based, human; settings: 20 hours
# Method: (§4) The treatments for different lanes of the Western blot are as follows: 1: No treatment; 2: 0.5 mM purified POH; 3: 1.5 mM purified POH; 4: 0.5 mM Sigma POH; 5: 1.5 mM Sigma POH; 6: 0.5 mM Wako POH; 7: 1.5 mM Wako POH; 8: Positive Control (DMC 40uM). Sigma POH is the POH purchased from Sigma Chemicals. Wako POH is the POH purchased from […]. Cells were treated with different agents or mock treated for 20 hours before being lysed.
# (§5) Sigma POH is the POH purchased from Sigma Chemicals.
# (§6) GRP78 is an anti-apoptotic protein the level of which is increased in response to stress. CHOP is a proapoptotic protein signaling for apoptosis. Pyrko et al. The unfolded protein response regulator GRP78/BiP as a novel target for increasing chemosensitivity in malignant gliomas. Cancer Research 67(20):9809-16, 2007.
# (§7) U251 TMZ-sensitive and TMZ-resistant (U251/TR1, U251/TR2) cells were treated with Sigma POH (1.5 mM) or purified POH (1.5 mM) for 20 hours, then Western blot was performed.
# [8] = tested on: CCAAT/enhancer binding protein (CHOP); assay: Western blot apoptosis marker CHOP; assay type: cell-based, human; settings: 20 hours
# Method: as §4, §5, §6, §7
# glioma = assay: Boyden matrigel chamber invasion; assay type: cell-based
# VEGF = assay: ELISA for VEGF secretion; assay type: cell-based; settings: U87 human glioma cells, POH for 48 hours
# Method: (§8) ELISA was performed after cells were treated with POH for 48 hours.
# (§9) Pyrko et al. The unfolded protein response regulator GRP78/BiP as a novel target for increasing chemosensitivity in malignant gliomas. Cancer Res 67(20):9809-16, 2007. […] In addition, it may overcome the immunosuppressive functions of transforming growth factor beta-2 (TGFβ-2) secreted by glioma cells.
# interleukin 8 (IL8) = assay: ELISA for IL-8 secretion; assay type: cell-based; settings: U87 human glioma cells, POH for 48 hours
# Method: as §8, §9
# U251 human glioma cells [9] = assay: MTT cytotoxicity assay, POH combined with TMZ; assay type: cell-based; settings: POH and TMZ, FIG. 5C
# Method: (§10) Cytotoxicity assays were carried out after cells were treated with POH in combination with temozolomide (TMZ), the standard alkylating agent used in the treatment of malignant gliomas. […] This effect was also seen in cell lines that were TMZ resistant.
# [10] = tested on: cell lines that were TMZ resistant; assay: Cytotoxicity assay, POH combined with TMZ, resistant lines; assay type: cell-based; settings: POH and TMZ
# Method: as §10
# [11] = tested on: U251, LN229 and U87 human glioma cells; assay: MTT cytotoxicity assay, POH combined with DMC; assay type: cell-based; settings: MTT and colony formation assays, FIG. 5A
# Description: (§11) Pyrko et al. HIV-1 protease inhibitors nelfinavir and atazanavir induce malignant glioma death by triggering endoplasmic reticulum stress. Cancer Res 67(22): 10920-10928, 2007.
# U251 human glioma cells [12] = assay: MTT cytotoxicity assay, POH combined with Nelfinavir; assay type: cell-based; settings: FIG. 5B
# Description: as §11
# [13] = tested on: brain endothelial cells (BECs); assay: Transepithelial electrical resistance (TEER), in vitro blood brain barrier model; assay type: cell-based; settings: 0.03% POH for 20 hours, compared to medium only, 0.01% and 0.02% POH
# Method: In these experiments, brain endothelial cells (BECs) were used as an in vitro model of blood brain barrier. The increase in TEER in each group over time corresponds to increased confluency of the cells in culture. TEER decreased when cells were treated by 0.03% POH for 20 hours compared to medium only, 0.01% POH treatment, and 0.02% POH treatment.
# Transepithelial electrical resistance (TEER) assays were performed assessing the ability of POH to increase paracellular permeability (FIG. 7A). In these experiments, brain endothelial cells (BECs) were used as an in vitro blood brain barrier model. […] TEER decreased when cells were treated by 0.03% POH for 20 hours compared to medium only, 0.01% POH treatment, and 0.02% POH treatment. The increase in TEER in each group over time corresponds to increased confluency of the cells in culture.
# [14] = tested on: glioblastoma cancer stem cell line USC-02; assay: MTT assay on glioblastoma cancer stem cells USC-02; assay type: cell-based, human
# Description: (§12) Verapamil is used as an inhibitor of drug efflux pump proteins such as P-glycoprotein.
# cancer stem cells USC-04 = assay: MTT cytotoxicity assay on cancer stem cells USC-04; assay type: cell-based; settings: Homo sapiens
# Description: as §12
# [15] = tested on: glioma tumor cells (U251 cells); assay: MTT cytotoxicity assay, glioma cells versus normal brain cells; assay type: cell-based, human; settings: FIG. 14
# Description: as §12
# [16] = tested on: normal stem cells mSVZ (mouse SVZ stem cells), brain endothelial cells (BECs) and astrocytes; assay: Comparison of POH IC50 values, normal cells; assay type: cell-based; settings: FIG. 18, normal cells
# [17] = tested on: glioblastoma cancer stem cells (USC04); assay: Sphere formation assay (SFA); assay type: cell-based, human; settings: POH 0-1.5 mM for 6 days
# Method: USC04 cells were incubated with varying concentrations of POH (0-1.5 mM) for 6 days.
# H-Ras [18] = assay: H-ras production in glioblastoma cancer stem cells; assay type: cell-based, human; settings: USC-02 and USC-04, POH for 24 hours
# Method: Two glioblastoma cancer stem cell lines (USC-02, USC-04) were treated by POH for 24 hours. USC-02 and USC-04 are two independent primary cancer stem cell lines isolated from glioblastoma tissue from two different patients.
# [19] = tested on: recurrent malignant gliomas; settings: intranasal delivery, patients with recurrent malignant gliomas; cited from earlier work
# [20] = oral, cited from earlier work
# [21] = tested on: intracranial glioma model; assay: Intracranial glioma model in athymic nu/nu mice, survival; assay type: in vivo; settings: mice treated with TMZ; untreated about four weeks
# Method: Male athymic nu/nu mice (6-8 weeks old) will be employed for this research. Rodent subcutaneous/intracranial glioma model can be established as follows. Six to eight week old athymic nu/nu mice will be anesthesized with intraperitoneal injections of ketamine (80 mg/kg) and xylazine (10 mg/kg). For the intracranial glioma model, the mice are placed into a stereotactic head frame (Harvard Apparatus), and local anesthetic (0.2 cc of 0.25% xylocaine) is injected into the right frontal scalp. A knife blade is used to make a small incision, and a drill bit is used to make a small opening in the right frontal skull at the level of the coronal suture. Glioma cells (1×10^5 cells/10 μl), for example, U-87 human glioma cells, will be loaded into a calibrated Hamilton syringe. The needle tip will be placed precisely into the right frontal lobe of the […], and cells will be slowly injected using a control push from the Hamilton syringe. After the injection is finished, the syringe and needle will be removed, and the wound closed.
# Brains will be harvested, and tumor size determined. Survival curves will be constructed by following the mice until they develop neurological deficits. Our experience has been that survival is about four weeks after implantation for untreated mice, and up to 8 weeks for mice treated with TMZ.
# [22] = U251 TMZ-sensitive and TMZ-resistant (U251/TR1, U251/TR2) cells, 1.5 mM
structure (smiles),measurement,setting,value
"C=C(C)[C@@H]1CC=C(CO)CC1 [Sigma POH, (S)-perillyl alcohol]",K-Ras expression,K-Ras,decreased
same,H-Ras expression,H-Ras [1],decreased
"COc1ccc(C2CNC(=O)C2)cc1OC1CCCC1 (stereo not shown) [rolipram, reference compound]",time after addition at which apoptosis occurred,"glioma cells; rolipram alone, high concentrations (e.g., 1 mM)",≥ 48 h
"C=C(C)[C@@H]1CC=C(CO)CC1 [purified POH, (S)-perillyl alcohol]","cytotoxicity (MTT), cell killing",[2],efficacy
same,"cytotoxicity (MTT), cell killing",[3],effective in killing
same,"cytotoxicity (MTT), cell killing",[4],effective in killing
same,colony formation,[5],efficacy
same,cytotoxicity in combination with radiation,B16-F1 melanoma cells,synergistic cytotoxicity
same,cytotoxicity in combination with radiation,[6],synergistic cytotoxicity
same,cell killing in combination with radiation,human A172 glioma cells,synergistically
same,expression of GRP-78,[7]; [22],increased expression
same,expression of CHOP,[8]; [22],increased expression
"C=C(C)[C@@H]1CC=C(CO)CC1 [POH, perillyl alcohol]",glioma invasion,glioma,inhibit glioma invasion
same,production of VEGF by glioma cells,VEGF,inhibited production
same,production of interleukin 8 (IL8) by glioma cells,interleukin 8 (IL8),inhibited production
same,cytotoxicity in combination with temozolomide (TMZ),U251 human glioma cells [9],at least additive
same,cytotoxicity in combination with temozolomide (TMZ),[10],also seen
same,cytotoxicity in combination with dimethyl-celecoxib (DMC),[11],at least additive
same,cytotoxicity in combination with Nelfinavir (NFV),U251 human glioma cells [12],at least additive
same,time after addition of the drugs at which synergistic cell killing occurred,glioma cells; rolipram and POH in combination,6 h
same,TEER,[13],decreased
same,level of GRP78,"[7]; U251, U87 and A172 cells",up-regulated
same,level of CHOP,"[8]; U251, U87 and A172 cells",up-regulated
same,POH IC50 compared among cell lines,"[14]; FIG. 18, USC-02 cells",most sensitive
same,sensitivity of USC-02 to POH relative to U251 cells or normal stem cells (mSVZ),"[14]; MTT, 48 hrs",more sensitive
same,EC50,cancer stem cells USC-04; FIG. 15A,300 µM
same,sensitivity of U251 cells to POH relative to brain endothelial cells (BECs) and astrocytes,[15],more sensitive
same,POH IC50 compared among cell lines,[16],most resistant
same,number of spheres formed,[17],decreased the number of spheres
same,H-ras production,H-Ras [18],decreased H-ras production
same,duration of disease remission in several patients,[19],≤ 3 years
same,patients achieving 6 month progression-free period,[19],50%
same,side effects from the treatment,[19],almost non-existent
same,anti-cancer efficacy,[20],limited
same,tolerability,[20]; mainly gastrointestinal side effects,generally poorly tolerated
"Cn1nnc2c(C(N)=O)ncn2c1=O [TMZ, temozolomide]",survival after implantation,[21],up to 8 weeks
"Cc1ccc(C)c(-c2cc(C(F)(F)F)nn2-c2ccc(S(N)(=O)=O)cc2)c1 [DMC, dimethyl-celecoxib, reference compound]",EC50,cancer stem cells USC-04; FIG. 15B,78 µM
